According to ChEMBL document CHEMBL3352227, “Synthesis, antimycobacterial and antibacterial evaluation of l-[(1R, 2S)-2-fluorocyclopropyl]fluoroquinolone derivatives containing an oxime functional moiety” (Eur J Med Chem, 2014):
Values after ≈ are worked out from the molar mass of the structure shown.

Experiments:
Type in all cases: functional
[1] = system: Klebsiella pneumoniae; assay: Antibacterial activity against extended-spectrum beta-lactamase producin Klebsiella pneumoniae 12-7 after 18 to 24 hrs by standard twofold serial dilution method
[2] = system: Staphylococcus epidermidis; assay: Antibacterial activity against methicillin-sensitive Staphylococcus epidermidis 12-8 after 18 to 24 hrs by standard twofold serial dilution method
[3] = system: Pseudomonas aeruginosa; assay: Antibacterial activity against Pseudomonas aeruginosa 12-14 after 18 to 24 hrs by standard twofold serial dilution method
[4] = system: Staphylococcus epidermidis; assay: Antibacterial activity against methicillin-resistant Staphylococcus epidermidis 12-1 after 18 to 24 hrs by standard twofold serial dilution method
[5] = system: Klebsiella pneumoniae; assay: Antibacterial activity against extended-spectrum beta-lactamase producin Klebsiella pneumoniae 12-14 after 18 to 24 hrs by standard twofold serial dilution method
[6] = system: Staphylococcus epidermidis; assay: Antibacterial activity against methicillin-sensitive Staphylococcus epidermidis 12-3 after 18 to 24 hrs by standard twofold serial dilution method
[7] = system: Staphylococcus aureus; assay: Antibacterial activity against methicillin-sensitive Staphylococcus aureus 12-5 after 18 to 24 hrs by standard twofold serial dilution method
[8] = system: Mycobacterium tuberculosis; assay: Antimycobacterial activity against Mycobacterium tuberculosis H37Rv ATCC 27294 by MABA method
[9] = system: Staphylococcus aureus; assay: Antibacterial activity against methicillin-sensitive Staphylococcus aureus 12-1 after 18 to 24 hrs by standard twofold serial dilution method
[10] = system: Staphylococcus aureus; assay: Antibacterial activity against methicillin-resistant Staphylococcus aureus 12-5 after 18 to 24 hrs by standard twofold serial dilution method
[11] = system: Staphylococcus aureus; assay: Antibacterial activity against methicillin-resistant Staphylococcus aureus 12-2 after 18 to 24 hrs by standard twofold serial dilution method
[12] = system: Escherichia coli; assay: Antibacterial activity against extended-spectrum beta-lactamase producing Escherichia coli 12-15 after 18 to 24 hrs by standard twofold serial dilution method
[13] = system: Staphylococcus aureus; assay: Antibacterial activity against methicillin-sensitive Staphylococcus aureus 12-4 after 18 to 24 hrs by standard twofold serial dilution method
[14] = system: Klebsiella pneumoniae; assay: Antibacterial activity against Klebsiella pneumoniae 12-1 after 18 to 24 hrs by standard twofold serial dilution method
[15] = system: Staphylococcus epidermidis; assay: Antibacterial activity against methicillin-resistant Staphylococcus epidermidis 12-6 after 18 to 24 hrs by standard twofold serial dilution method
[16] = system: Klebsiella pneumoniae; assay: Antibacterial activity against Klebsiella pneumoniae 12-4 after 18 to 24 hrs by standard twofold serial dilution method
[17] = system: Klebsiella pneumoniae; assay: Antibacterial activity against extended-spectrum beta-lactamase producin Klebsiella pneumoniae 12-3 after 18 to 24 hrs by standard twofold serial dilution method
[18] = system: Staphylococcus aureus; assay: Antibacterial activity against methicillin-resistant Staphylococcus aureus 12-4 after 18 to 24 hrs by standard twofold serial dilution method
[19] = system: Staphylococcus aureus; assay: Antibacterial activity against methicillin-sensitive Staphylococcus aureus 12-2 after 18 to 24 hrs by standard twofold serial dilution method
[20] = system: Staphylococcus aureus; assay: Antibacterial activity against Staphylococcus aureus ATCC 25923 after 18 to 24 hrs by standard twofold serial dilution method
[21] = system: Escherichia coli; assay: Antibacterial activity against Escherichia coli ATCC 25922 after 18 to 24 hrs by standard twofold serial dilution method
[22] = system: Streptococcus pneumoniae; assay: Antibacterial activity against Streptococcus pneumoniae ATCC 49619 after 18 to 24 hrs by standard twofold serial dilution method
[23] = system: Staphylococcus epidermidis; assay: Antibacterial activity against methicillin-sensitive Staphylococcus epidermidis 12-1 after 18 to 24 hrs by standard twofold serial dilution method
[24] = system: Staphylococcus epidermidis; assay: Antibacterial activity against methicillin-sensitive Staphylococcus epidermidis 12-6 after 18 to 24 hrs by standard twofold serial dilution method
[25] = system: Klebsiella pneumoniae; assay: Antibacterial activity against extended-spectrum beta-lactamase producin Klebsiella pneumoniae 12-4 after 18 to 24 hrs by standard twofold serial dilution method
[26] = system: Streptococcus pneumoniae; assay: Antibacterial activity against Streptococcus pneumoniae 12-18 after 18 to 24 hrs by standard twofold serial dilution method
[27] = system: Klebsiella pneumoniae; assay: Antibacterial activity against Klebsiella pneumoniae 12-2 after 18 to 24 hrs by standard twofold serial dilution method
[28] = system: Pseudomonas aeruginosa; assay: Antibacterial activity against Pseudomonas aeruginosa 12-12 after 18 to 24 hrs by standard twofold serial dilution method
[29] = system: Escherichia coli; assay: Antibacterial activity against extended-spectrum beta-lactamase producing Escherichia coli 12-3 after 18 to 24 hrs by standard twofold serial dilution method
[30] = system: Escherichia coli; assay: Antibacterial activity against Escherichia coli 12-1 after 18 to 24 hrs by standard twofold serial dilution method
[31] = system: Escherichia coli; assay: Antibacterial activity against extended-spectrum beta-lactamase producing Escherichia coli 12-14 after 18 to 24 hrs by standard twofold serial dilution method
[32] = system: Escherichia coli; assay: Antibacterial activity against extended-spectrum beta-lactamase producing Escherichia coli 12-2 after 18 to 24 hrs by standard twofold serial dilution method

With `O=C(O)c1cn(C2CC2)c2cc(N3CCNCC3)c(F)cc2c1=O` [CIPROFLOXACIN] the MIC [1] was 0.5 µg/mL (≈ 1.51 µM), the MIC [2] was 4 µg/mL (≈ 12.1 µM) and the MIC [3] was 32 µg/mL (≈ 96.6 µM). It also gave an MIC [4] of 8 µg/mL (≈ 24.1 µM), an MIC [5] of 64 µg/mL (≈ 193 µM) and an MIC [6] of 2 µg/mL (≈ 6.04 µM). For the same molecule, the MIC [7] was 0.25 µg/mL (≈ 0.754 µM), the MIC [8] was 0.25 µg/mL (≈ 0.754 µM) and the MIC [9] was 0.25 µg/mL (≈ 0.754 µM). It also gave an MIC [10] of 32 µg/mL (≈ 96.6 µM), an MIC [11] of 64 µg/mL (≈ 193 µM) and an MIC [12] of 64 µg/mL (≈ 193 µM). For the same molecule, the MIC [13] was 0.25 µg/mL (≈ 0.754 µM), the MIC [14] was 0.125 µg/mL (≈ 0.377 µM) and the MIC [15] was 16 µg/mL (≈ 48.3 µM). The MIC [16] was under 0.008 µg/mL, the MIC [17] was 32 µg/mL (≈ 96.6 µM) and the MIC [18] was 64 µg/mL (≈ 193 µM). It also gave an MIC [19] of 0.25 µg/mL (≈ 0.754 µM), an MIC [20] of 0.25 µg/mL (≈ 0.754 µM) and an MIC [21] of under 0.008 µg/mL. For the same molecule, the MIC [22] was 0.25 µg/mL (≈ 0.754 µM), the MIC [23] was 0.25 µg/mL (≈ 0.754 µM) and the MIC [24] was 0.25 µg/mL (≈ 0.754 µM). For the same molecule, the MIC [25] was 4 µg/mL (≈ 12.1 µM), the MIC [26] was 1 µg/mL (≈ 3.02 µM) and the MIC [27] was 0.03 µg/mL (≈ 0.0905 µM).
`NNC(=O)c1ccncc1` [ISONIAZID] gave an MIC [8] of 0.05 µg/mL (≈ 0.365 µM).
`C[C@H]1COc2c(N3CCN(C)CC3)c(F)cc3c(=O)c(C(=O)O)cn1c23.C[C@H]1COc2c(N3CCN(C)CC3)c(F)cc3c(=O)c(C(=O)O)cn1c23.O` [LEVOFLOXACIN] showed an MIC [2] of 4 µg/mL, an MIC [3] of 16 µg/mL and an MIC [4] of 4 µg/mL. The MIC [5] was 16 µg/mL, the MIC [28] was 0.5 µg/mL and the MIC [6] was 0.5 µg/mL. It also gave an MIC [7] of 0.125 µg/mL, an MIC [8] of 0.25 µg/mL and an MIC [9] of 0.125 µg/mL. For the same molecule, the MIC [10] was 32 µg/mL, the MIC [11] was 32 µg/mL and the MIC [12] was 32 µg/mL. For the same molecule, the MIC [13] was 0.125 µg/mL, the MIC [29] was 32 µg/mL and the MIC [14] was 0.06 µg/mL. For the same molecule, the MIC [15] was 32 µg/mL, the MIC [16] was under 0.008 µg/mL and the MIC [17] was 16 µg/mL. The MIC [18] was 32 µg/mL, the MIC [19] was 0.125 µg/mL and the MIC [20] was under 0.008 µg/mL. It also gave an MIC [30] of 0.25 µg/mL, an MIC [31] of 16 µg/mL and an MIC [21] of under 0.008 µg/mL. The MIC [22] was 0.125 µg/mL, the MIC [23] was 0.125 µg/mL and the MIC [24] was 0.125 µg/mL. It also gave an MIC [25] of 8 µg/mL, an MIC [27] of under 0.008 µg/mL and an MIC [32] of 16 µg/mL.
Work on `COc1c(N2C[C@@H]3CCCN[C@@H]3C2)c(F)cc2c(=O)c(C(=O)O)cn(C3CC3)c12` [MOXIFLOXACIN] yielded an MIC [1] of 0.5 µg/mL (≈ 1.25 µM), an MIC [2] of 1 µg/mL (≈ 2.49 µM) and an MIC [3] of 16 µg/mL (≈ 39.9 µM). For the same molecule, the MIC [4] was 0.25 µg/mL (≈ 0.623 µM), the MIC [5] was 64 µg/mL (≈ 159 µM) and the MIC [28] was 2 µg/mL (≈ 4.98 µM). It also gave an MIC [6] of 0.125 µg/mL (≈ 0.311 µM), an MIC [7] of 0.015 µg/mL (≈ 0.0374 µM) and an MIC [9] of 0.015 µg/mL (≈ 0.0374 µM). It also gave an MIC [10] of 8 µg/mL (≈ 19.9 µM), an MIC [11] of 8 µg/mL (≈ 19.9 µM) and an MIC [12] of 32 µg/mL (≈ 79.7 µM). The MIC [13] was under 0.008 µg/mL, the MIC [29] was 64 µg/mL (≈ 159 µM) and the MIC [14] was 0.015 µg/mL (≈ 0.0374 µM). For the same molecule, the MIC [15] was 16 µg/mL (≈ 39.9 µM), the MIC [16] was 0.03 µg/mL (≈ 0.0747 µM) and the MIC [17] was 32 µg/mL (≈ 79.7 µM). The MIC [18] was 8 µg/mL (≈ 19.9 µM), the MIC [19] was under 0.008 µg/mL and the MIC [20] was under 0.008 µg/mL. It also gave an MIC [30] of 0.5 µg/mL (≈ 1.25 µM), an MIC [21] of under 0.008 µg/mL and an MIC [22] of 0.06 µg/mL (≈ 0.149 µM). For the same molecule, the MIC [23] was 0.03 µg/mL (≈ 0.0747 µM), the MIC [24] was 0.03 µg/mL (≈ 0.0747 µM) and the MIC [25] was 0.5 µg/mL (≈ 1.25 µM). For the same molecule, the MIC [26] was 0.5 µg/mL (≈ 1.25 µM), the MIC [27] was 0.06 µg/mL (≈ 0.149 µM) and the MIC [32] was 32 µg/mL (≈ 79.7 µM).
In the case of `CO[C@H]1/C=C/O[C@@]2(C)Oc3c(C)c(O)c4c(O)c(c(/C=N/N5CCN(C)CC5)c(O)c4c3C2=O)NC(=O)/C(C)=C\C=C\[C@H](C)[C@H](O)[C@@H](C)[C@@H](O)[C@@H](C)[C@H](OC(C)=O)[C@@H]1C` [RIFAMPIN], the MIC [8] is reported as 0.05 µg/mL (≈ 0.0608 µM).
